In patent US20050244916A1, “Methods for predicting protein activity based on identification of multidimensional signatures” (priority 2004, published 2005):
“Also recorded” adds a separate entry of the source.

B1: PBP: chemokine, platelet basic peptide (protein, UniProt P02775 35-128, looked up)
Platelet basic protein: SSTKGQTKRNLAKGKEESLDSDLYAELRCMCIKTTSGIHPKNIQSLEVIGKGTHCNQVEVIATLKDGRKICLDPDAPRIKKIVQKKLAGDESAD
modifications: Platelet basic protein
notes: chemokine, platelet basic peptide

How the values were obtained:
[1] = test system: Candida albicans (ATCC 36082); assay: solid-phase radial diffusion antimicrobial assay, fungus; format: cell-based; settings: pH 5.5 or pH 7.5, read after 24 h
Procedure: (§1) Standard radial diffusion assays were conducted using 10 μg of specified peptide: defensin HNP-1 (HNP); brazzein (BRZ); charybdotoxin (CTX); or metallothionein II (MTL). Recombinant brazzein reflecting the published 3-dimensional structure (1BRZ) as determined by nuclear magnetic resonance spectroscopy was kindly provided by Drs. J. L. Markley and F. M. Assadi-Porter, the University of Wisconsin 25. Charybdotoxin, metallothionein II, and defensin HNP-1 were obtained from commercial sources. Antimicrobial activity was assessed using a well-established solid-phase diffusion method as described by Tang et al., Infect. Immun. 70: 6524-6533 (2002). Assays included well characterized organisms: Staphylococcus aureus (ATCC 27217, Gram-positive coccus); Bacillus subtilis (ATCC 6633, Gram-positive bacillus); Escherichia coli (strain ML-35, Gram-negative bacillus); and Candida albicans (ATCC 36082, fungus). In brief, organisms were cultured to logarithmic phase and inoculated (106 colony forming units/ml) into buffered molecular-biology grade agarose at the indicated pH. Peptides resuspended in sterile deionized water were introduced into wells formed in the underlay, and incubated for 3 h at 37° C. Nutrient-containing overlay medium was then applied, and assays incubated at 37° C. or 30° C. for bacteria or fungi, respectively. After 24 h, zones of complete or partial inhibition were measured. All assays were repeated independently a minimum of two times at pH 5.5 (panels A-D) or pH 7.5 (panels E-H) to assess the influences of pH on peptide antimicrobial activities versus microorganisms. Histograms express mean (±standard deviation) zones of complete (blue) or incomplete (yellow) inhibition of growth. […] Note differences in scale.
These peptides were tested for antimicrobial activity against a panel of Gram-positive (Staphylococcus aureus, Bacillus subtilis) and Gram-negative (Escherichia coli) bacteria, and the fungus Candida albicans, using a well-established and sensitive in vitro assay [Antimicrobial activity was assessed using a well-established solid-phase diffusion method. Assays included well-characterized organisms: Staphylococcus aureus (ATCC 27217, Gram-positive); Bacillus subtilis (ATCC 6633, Gram-positive); Escherichia coli (strain ML-35, Gram-negative); and Candida albicans (ATCC 36082, fungus). In brief, organisms were cultured to logarithmic phase and inoculated at a density of 10^6 colony forming units/ml in buffered molecular grade agarose at the indicated pH. Five μg of peptide resuspended in sterile deionized water were introduced into wells formed in the underlay, and incubated for 3 h at 37° C. […] After 24 h, zones of complete or partial inhibition were measured. […]

[2] = test system: Staphylococcus aureus (ATCC 27217), Bacillus subtilis (ATCC 6633), Escherichia coli (strain ML-35); assay: solid-phase radial diffusion antimicrobial assay, bacteria; format: cell-based; settings: for antimicrobial activity compared with standard control defensin HNP-1: pH-specific, organism not specified (panel of bacteria and C. albicans); for antimicrobial activity against bacteria (zones of complete or partial inhibition): radial diffusion, pH 5.5 or pH 7.5, read after 24 h, S. aureus, B. subtilis, E. coli
Procedure: as §1
These peptides were tested for antimicrobial activity against a panel of Gram-positive (Staphylococcus aureus, Bacillus subtilis) and Gram-negative (Escherichia coli) bacteria, and the fungus Candida albicans, using a well-established and sensitive in vitro assay [Antimicrobial activity was assessed using a well-established solid-phase diffusion method. Assays included well-characterized organisms: Staphylococcus aureus (ATCC 27217, Gram-positive); Bacillus subtilis (ATCC 6633, Gram-positive); Escherichia coli (strain ML-35, Gram-negative); and Candida albicans (ATCC 36082, fungus). In brief, organisms were cultured to logarithmic phase and inoculated at a density of 10^6 colony forming units/ml in buffered molecular grade agarose at the indicated pH. Five μg of peptide resuspended in sterile deionized water were introduced into wells formed in the underlay, and incubated for 3 h at 37° C. Nutrient-containing overlay medium was then applied, and assays incubated at 37° C. or 30° C. for bacteria or fungi, respectively. Defensin HNP-1 was tested in parallel as a standard control. After 24 h, zones of complete or partial inhibition were measured. All assays were repeated independently a minimum of two times. Tang et al., Infect. Immun. 70:6524 (2002) for detailed methodology.].

[3] = literature statement, organisms not given; cited from earlier work

Molecule | antimicrobial activity against C. albicans (zones of complete or partial inhibition) [1] | antimicrobial activity against bacteria (zones of complete or partial inhibition) [2] | direct antimicrobial activity [3] | other results
brazzein: sweetener protein from Pentadiplandra (J'Oblie berry); recombinant, structure 1BRZ (QDKCKKVYENYPVSKCQLANQCNYDCKLDKHARSGECFYDEKRNLQCICDYCEY; UniProt P56552 1-54, looked up) | direct antimicrobial activities; also recorded: previously unrecognized antimicrobial activity; also recorded: exerted direct antimicrobial activity | direct antimicrobial activities; also recorded: previously unrecognized antimicrobial activity; also recorded: exerted direct antimicrobial activity |  | antimicrobial activity compared with standard control defensin HNP-1 [2]: in some conditions exceeded that of HNP-1
metallothionein II: prototype metallothionein (Saccharomyces, 1AOO) lacking the γ-core motif; comparator predicted to lack antimicrobial activity (QNEGHECQCQCGSCKNNEQCQKSCSCPTGCNSDDKCPCGNKSEETKKSCCSGK; UniProt P0CX80 9-61, looked up) | devoid of antimicrobial activity; also recorded: failed to exert antimicrobial activity | devoid of antimicrobial activity; also recorded: failed to exert antimicrobial activity |  | antimicrobial activity against C. albicans (zones of complete or partial inhibition) ([1]; listed as Metallothionein II): lacked antimicrobial activity; antimicrobial activity against bacteria (zones of complete or partial inhibition) ([2]; listed as Metallothionein II): lacked antimicrobial activity
IP-10/CXCL10: interferon-γ inducible protein-10 kDa |  |  | direct antimicrobial activity | 
ITAC/CXCL11: interferon-inducible T cell α chemoattractant |  |  | direct antimicrobial activity | 
charybdotoxin | direct antimicrobial activities; also recorded: previously unrecognized antimicrobial activity; also recorded: exerted direct antimicrobial activity | direct antimicrobial activities; also recorded: previously unrecognized antimicrobial activity; also recorded: exerted direct antimicrobial activity |  | antimicrobial activity compared with standard control defensin HNP-1 [2]: in some conditions exceeded that of HNP-1
PF-4: chemokine, human platelet factor-4 |  |  | direct antimicrobial activity | 
RANTES: β-chemokine, releasable upon activation normal T cell expressed/secreted |  |  | direct antimicrobial activity | 
MIG/CXCL9: monokine induced by interferon-γ |  |  | direct antimicrobial activity | 
B1 |  |  | direct antimicrobial activity | 
